# Laboratory results reported in the supplement of paper PMC10307832.
# Legend:
# Assay in all cases: relative viability (nuclei count vs DMSO), 5 days (fraction); higher = more cells survive
# NCI-H1915 = test system: NCI-H1915
# Procedure, shortened: (§1)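 Relative viability was taken as the ratio of nuclei in treated wells to nuclei in vehicle wells. Lung cancer cell lines in 1536-well plates received compounds by pin tool one day after seeding, either one drug alone or a fixed anchor-drug dose plus five library-drug doses (not always all listed) in √10 steps. Nuclei were counted on 4× images after 5 days of treatment, and values are medians of duplicate plates.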
# NCI-H1793 = test system: NCI-H1793
# Procedure, shortened: as §1
# LK-2 = test system: LK-2
# Procedure, shortened: as §1
# SK-MES-1 = test system: SK-MES-1
# Procedure, shortened: as §1
# SK-LU-1 = test system: SK-LU-1
# Procedure, shortened: as §1
# NCI-H2087 = test system: NCI-H2087
# Procedure, shortened: as §1
# NCI-H1437 = test system: NCI-H1437
# Procedure, shortened: as §1
# EMC-BAC-2 = test system: EMC-BAC-2
# Procedure, shortened: as §1
# NCI-H1755 = test system: NCI-H1755
# Procedure, shortened: as §1
# H3255 = test system: H3255
# Procedure, shortened: as §1
# NCI-H1651 = test system: NCI-H1651
# Procedure, shortened: as §1
# LXF-289 = test system: LXF-289
# Procedure, shortened: as §1
# NCI-H2085 = test system: NCI-H2085
# Procedure, shortened: as §1
# CAL-12T = test system: CAL-12T
# Procedure, shortened: as §1
# COR-L 105 = test system: COR-L 105
# Procedure, shortened: as §1
# EKVX = test system: EKVX
# Procedure, shortened: as §1
# NCI-H661 = test system: NCI-H661
# Procedure, shortened: as §1
# PC-3 [JPC-3] = test system: PC-3 [JPC-3]
# Procedure, shortened: as §1
# LC-2-ad = test system: LC-2-ad
# Procedure, shortened: as §1
# NCI-H2228 = test system: NCI-H2228
# Procedure, shortened: as §1
# NCI-H1395 = test system: NCI-H1395
# Procedure, shortened: as §1
# NCI-H2347 = test system: NCI-H2347
# Procedure, shortened: as §1
# NCI-H1944 = test system: NCI-H1944
# Procedure, shortened: as §1
compound,measurement,setting,value
O=c1[nH]c2ccccc2n1C1CCN(CCCC(c2ccc(F)cc2)c2ccc(F)cc2)CC1 [Pimozide] + COc1cccc2cc(-c3nc([C@H]4CC[C@H](C(=O)O)CC4)n4ncnc(N)c34)[nH]c12 [OSI-027] (partner 0.5 µM),relative viability,NCI-H1915; first compound 0.08 µM,0.6
same,relative viability,NCI-H1915; first compound 0.253 µM,0.575
same,relative viability,NCI-H1915; first compound 0.8 µM,0.384
same,relative viability,NCI-H1915; first compound 2.53 µM,0.581
same,relative viability,NCI-H1915; first compound 8 µM,0.478
same,relative viability,NCI-H1793; first compound 0.253 µM,0.239
same,relative viability,NCI-H1793; first compound 0.8 µM,0.205
same,relative viability,NCI-H1793; first compound 2.53 µM,0.245
same,relative viability,NCI-H1793; first compound 8 µM,0.115
same,relative viability,LK-2; first compound 0.08 µM,0.183
same,relative viability,LK-2; first compound 0.253 µM,0.249
same,relative viability,LK-2; first compound 0.8 µM,0.179
same,relative viability,LK-2; first compound 2.53 µM,0.198
same,relative viability,LK-2; first compound 8 µM,0.167
same,relative viability,SK-MES-1; first compound 0.08 µM,0.61
same,relative viability,SK-MES-1; first compound 0.253 µM,0.572
same,relative viability,SK-MES-1; first compound 0.8 µM,0.546
same,relative viability,SK-MES-1; first compound 2.53 µM,0.586
same,relative viability,SK-MES-1; first compound 8 µM,0.463
same,relative viability,SK-LU-1; first compound 0.08 µM,0.417
same,relative viability,SK-LU-1; first compound 0.253 µM,0.331
same,relative viability,SK-LU-1; first compound 0.8 µM,0.285
same,relative viability,SK-LU-1; first compound 2.53 µM,0.231
same,relative viability,SK-LU-1; first compound 8 µM,0.201
same,relative viability,NCI-H2087; first compound 0.08 µM,0.765
same,relative viability,NCI-H2087; first compound 0.253 µM,0.55
same,relative viability,NCI-H2087; first compound 2.53 µM,0.427
same,relative viability,NCI-H2087; first compound 8 µM,0.377
same,relative viability,NCI-H1437; first compound 0.08 µM,0.93
same,relative viability,NCI-H1437; first compound 0.253 µM,0.888
same,relative viability,NCI-H1437; first compound 0.8 µM,0.883
same,relative viability,NCI-H1437; first compound 2.53 µM,0.89
same,relative viability,NCI-H1437; first compound 8 µM,0.676
same,relative viability,EMC-BAC-2; first compound 0.08 µM,0.353
same,relative viability,EMC-BAC-2; first compound 0.253 µM,0.337
same,relative viability,EMC-BAC-2; first compound 0.8 µM,0.342
same,relative viability,EMC-BAC-2; first compound 2.53 µM,0.338
same,relative viability,EMC-BAC-2; first compound 8 µM,0.391
same,relative viability,NCI-H1755; first compound 0.08 µM,0.678
same,relative viability,NCI-H1755; first compound 0.253 µM,0.687
same,relative viability,NCI-H1755; first compound 0.8 µM,0.678
same,relative viability,NCI-H1755; first compound 2.53 µM,0.597
same,relative viability,NCI-H1755; first compound 8 µM,0.51
same,relative viability,H3255; first compound 0.253 µM,0.514
same,relative viability,H3255; first compound 0.8 µM,0.563
same,relative viability,H3255; first compound 2.53 µM,0.6
same,relative viability,H3255; first compound 8 µM,0.584
same,relative viability,NCI-H1651; first compound 0.08 µM,0.657
same,relative viability,NCI-H1651; first compound 0.253 µM,0.7
same,relative viability,NCI-H1651; first compound 0.8 µM,0.633
same,relative viability,NCI-H1651; first compound 2.53 µM,0.757
same,relative viability,NCI-H1651; first compound 8 µM,0.596
same,relative viability,LXF-289; first compound 0.08 µM,0.693
same,relative viability,LXF-289; first compound 0.253 µM,0.786
same,relative viability,LXF-289; first compound 0.8 µM,0.773
same,relative viability,LXF-289; first compound 2.53 µM,0.811
same,relative viability,LXF-289; first compound 8 µM,0.716
same,relative viability,NCI-H2085; first compound 0.08 µM,0.59
same,relative viability,NCI-H2085; first compound 0.253 µM,0.736
same,relative viability,NCI-H2085; first compound 0.8 µM,0.701
same,relative viability,NCI-H2085; first compound 2.53 µM,0.709
same,relative viability,NCI-H2085; first compound 8 µM,0.61
same,relative viability,CAL-12T; first compound 0.08 µM,0.756
same,relative viability,CAL-12T; first compound 0.253 µM,0.706
same,relative viability,CAL-12T; first compound 0.8 µM,0.673
same,relative viability,CAL-12T; first compound 2.53 µM,0.41
same,relative viability,CAL-12T; first compound 8 µM,0.561
same,relative viability,COR-L 105; first compound 0.253 µM,0.778
same,relative viability,COR-L 105; first compound 0.8 µM,0.617
same,relative viability,COR-L 105; first compound 2.53 µM,0.64
same,relative viability,COR-L 105; first compound 8 µM,0.58
same,relative viability,EKVX; first compound 0.08 µM,0.548
same,relative viability,EKVX; first compound 0.253 µM,0.733
same,relative viability,EKVX; first compound 0.8 µM,0.668
same,relative viability,EKVX; first compound 2.53 µM,0.637
same,relative viability,EKVX; first compound 8 µM,0.647
same,relative viability,NCI-H661; first compound 0.08 µM,0.691
same,relative viability,NCI-H661; first compound 0.253 µM,0.647
same,relative viability,NCI-H661; first compound 0.8 µM,0.624
same,relative viability,NCI-H661; first compound 2.53 µM,0.533
same,relative viability,NCI-H661; first compound 8 µM,0.538
same,relative viability,PC-3 [JPC-3]; first compound 0.08 µM,0.338
same,relative viability,PC-3 [JPC-3]; first compound 0.253 µM,0.739
same,relative viability,PC-3 [JPC-3]; first compound 0.8 µM,0.688
same,relative viability,PC-3 [JPC-3]; first compound 2.53 µM,0.746
same,relative viability,PC-3 [JPC-3]; first compound 8 µM,0.685
same,relative viability,LC-2-ad; first compound 0.08 µM,0.694
same,relative viability,LC-2-ad; first compound 0.253 µM,0.875
same,relative viability,LC-2-ad; first compound 0.8 µM,0.735
same,relative viability,LC-2-ad; first compound 2.53 µM,0.681
same,relative viability,LC-2-ad; first compound 8 µM,0.635
same,relative viability,NCI-H2228; first compound 0.08 µM,0.537
same,relative viability,NCI-H2228; first compound 0.253 µM,0.644
same,relative viability,NCI-H2228; first compound 0.8 µM,0.587
same,relative viability,NCI-H2228; first compound 2.53 µM,0.451
same,relative viability,NCI-H2228; first compound 8 µM,0.221
same,relative viability,NCI-H1395; first compound 0.08 µM,0.642
same,relative viability,NCI-H1395; first compound 0.253 µM,0.611
same,relative viability,NCI-H1395; first compound 0.8 µM,0.565
same,relative viability,NCI-H1395; first compound 2.53 µM,0.629
same,relative viability,NCI-H1395; first compound 8 µM,0.557
same,relative viability,NCI-H2347; first compound 0.253 µM,0.497
same,relative viability,NCI-H2347; first compound 0.8 µM,0.413
same,relative viability,NCI-H2347; first compound 2.53 µM,0.39
same,relative viability,NCI-H2347; first compound 8 µM,0.359
same,relative viability,NCI-H1944; first compound 0.08 µM,0.347
same,relative viability,NCI-H1944; first compound 0.253 µM,0.417
same,relative viability,NCI-H1944; first compound 0.8 µM,0.33
same,relative viability,NCI-H1944; first compound 2.53 µM,0.389
same,relative viability,NCI-H1944; first compound 8 µM,0.37
